Results on two compounds are retold here after US20160367553A1, “Methods and Compositions for Treating Cancers having Acquired Resitance to prior Chemotherapeutic and Targeted Drugs Using Carboxyamidotriazole Orotate” (priority 2015, published 2016).

One experiment has as its system VEGF. The conditions noted are these: cited from earlier work.
For experiment [1], the system named is imatinib mesylate-resistant chronic myeloid leukemia cells. The conditions noted are these: cited from earlier work.
The next experiment relates to renal cell carcinoma. The experiment is described as follows: Phase I clinical study of CTO, patient with refractory renal cell carcinoma. The conditions noted are these: 75 mg/m2/day. The experiment is classed as in vivo, human.
Experiment [2] has as its system metastatic colorectal cancer. The experiment is described as follows: Phase I clinical study of CTO, patient with refractory metastatic colorectal cancer. Type of experiment: in vivo, human. The conditions noted are these: 285 mg/m2/day.
Experiment [3] relates to Akt and Erk1/2 phosphorylation. The conditions noted are these: exosomes-stimulated HUVEC cell; cited from earlier work.
Experiment [4] concerns refractory head and neck tumor. Nature of the experiment: Phase I clinical study of CTO, patient with refractory head and neck tumor. The experiment is classed as in vivo, human. The conditions noted are these: tumor PBKCA, E545K, 285 mg/m2/day.
Method: The effectiveness of the CTO treatment is determined by controlled clinical studies. The cancers are evaluated by measuring tumors no more than 14 days before the start of the treatment, and evaluated after 2 cycles of 28 days after day 1 of the administration of the first dose of CTO. The tumor size is measured by the most accurate measurement such as PET-CT, CI scan, MRI scan, x-ray, ultrasound, etc. The criteria for evaluating response are described in the revised Response Evaluation Criteria in Solid Tumors Guidelines, Eisenhauer et al, 1990 and by the Macdonald Criteria for response to high grade gliomas, Macdonald. et al, 1990.
“Progressive disease” is defined as an increase of 25% or greater in the product of the largest perpendicular diameters for at least one bidimensionally measurable tumor, or an increase of 25% or greater at least one undimensionally measurable tumor or appearance of a new lesion or clinical deterioration. […]
“Partial response” means a) for bidimensionally measurable tumors, a decrease of at least 50% in the sum of the products of tire largest perpendicular diameters of all measurable tumors as determined by two observations not less than four weeks apart, b) for undimensionally measurable tumors, a decrease by at least 50% in the sum of the largest diameters of all tumors as determined by two observation not less than four weeks apart. […]
In the next experiment the test system is refractory NSCLC. The experiment is described as follows: Phase I clinical study of CTO, patients with refractory NSCLC. Type of experiment: in vivo, human. The conditions noted are these: NSCLC patient; for tumor response measured after two cycles: docetaxel, erlotinib, 28 days.

Consider `NC(=O)c1nnn(Cc2cc(Cl)c(C(=O)c3ccc(Cl)cc3)c(Cl)c2)c1N` [CAI, Carboxyamidotriazole], for which the “effect on VEGF expression and secretion” value in the experiment with VEGF was “inhibits VEGF expression, and secretion”. Also, in experiment [1], the “apoptosis by down-regulating bcr-abl” value was “induces apoptosis”.

Turning to `NC(=O)c1nnn(Cc2cc(Cl)c(C(=O)c3ccc(Cl)cc3)c(Cl)c2)c1N.O=C(O)c1cc(=O)[nH]c(=O)[nH]1` [CTO, carboxyamidotriazole orotate], the “stable disease and partial response registered for” value is “over twelve” with renal cell carcinoma (CTO continued); “six” in experiment [2] (tumor); “more than six” in experiment [4]; “more than twelve” in the experiment with refractory NSCLC (tumor EGFR, ELREATS 746-752 V (exon 19), 219 mg/m2/day); “more than twelve” in the experiment with refractory NSCLC (tumor PI3KCA, E545K, 219mg/m2/day). The “tumor response measured after two cycles” value with renal cell carcinoma (prior IL-2, pegylated IFN, sorafenib, sunitnib, erlotinib, torisel, 28 days, two cycles) was “responded by not progressing”; in experiment [2] (tumor BRAF V660E, prior leucovorin, fluorouracil, oxaliplatin, bevacizumab, cetuximab, capecitabine, panitumumab, irinotecan, 28 days, two cycles) it was “responded to CTO by not progressing”; in experiment [4] (prior cetuximab, cisplatin, taxotere, 28 days, two cycles), “responded by not progressing”; with refractory NSCLC (tumor EGFR, ELREATS 746-752 V (exon 19), prior carboplatin, paclitaxel, cisplatin, gemcitamide, premetrexed, 219 mg/m2/day), “responded by not progressing”; in the experiment with refractory NSCLC (tumor PI3KCA, E545K, prior paclitaxel, carboplatin, 219mg/m2/day), “responded by not progressing”. Besides, the “effect on Akt and Erk1/2 phosphorylation” value in experiment [3] is “inhibits Akt and Erk1/2 phosphorylation”.
